Columns and labels:
[1] = test system: human invasive MCF-7/6 mammary carcinoma cells; assay: Chick heart invasion (CHI) assay with MCF-7/6 aggregates; assay type: cell-based; conditions: MCF7/6, 192 h, lowest concentration at which an anti-invasive effect (histological grade I or II) was observed, 8 days, read-out: Lowest active concentration
Procedure: Chick heart invasion assays were performed as described earlier (Bracke et al. 2014). Precultured heart fragments of 9-day-old chicken embryos were confronted with MCF-7/6 aggregates on top of a semi-solid agar at 37° C. overnight, after which the confronting pairs were cultured in suspension for 8 days at 37° C., 10% CO2 in presence or absence of a test compound (in duplo). This procedure can also be performed with aggregates of 4T1-Luc cells, for which the suspension culture of the confronting pairs is performed for 3.5 days. All compounds were evaluated at 1 μM and 100 nM; depending on the outcome higher or lower concentrations were subsequently evaluated. Upon fixation in Bouin-Hollande, the cultures were dehydrated and embedded in paraffin. Sections of the confrontation cultures were stained with hematoxylin-eosin are blinded and scored by a trained person (Bracke et al., 2014).
In the chick heart invasion assay cancer cells are confronted with a fragment of normal tissue, so as not to neglect the contribution of the host tissue in the micro-ecosystem that governs tumor behavior. As such, precultured heart tissue fragments (PHFs), dissected from 9-day-old chicken embryos, may be confronted with aggregates of human invasive MCF-7/6 mammary carcinoma cells or other cells in the presence of a certain concentration of a test compound. After eight days for MCF-7/6, or another period depending on the cell type, the interaction between the cancer cells and the PHF is evaluated histologically and classified along a 5-grades subjective scale (Bracke et al. 2014). Grades III and IV are typical for invasion, while grades 0, I and II correspond to absence of invasion. Compounds that inhibit invasion of confronting cancer cells i.e. from III/IV to 0/I/II, are determined as anti-invasive. Possible alternative assays generally known in the art are the type I collagen invasion assay, wound healing assay and the matrigel invasion assay.
The chick heart invasion (CHI) assay is a phenotypic assay that confronts precultured heart tissue fragments (PHFs, ‘normal tissue’), obtained from 9-day-old chicken embryos, with aggregates of human invasive MCF-7/6 mammary carcinoma cells (Bracke et al. 2014). In the control situation, the MCF-7/6 cells encircle, invade and destroy the PHF over an 8-day period. Invasion in this assay is defined as the progressive occupation and destruction of the PHF by the MCF-7/6 cells. Three-dimensional reconstruction of this interaction is obtained by microscopic analysis of all consecutive histological sections of the culture. The read-out is an invasion score according to a 5-grades histological scale.
The CHI closely reproduces the temporal, spatial and histological invasion patterns in man. The co-culture set-up probes for effects on both tumor cells and host tissue, and thus interrogates potential pharmacological targets in either interaction partner. Its use of histological evaluation allows discerning anti-invasive action from cytotoxicity or other effects.
We have submitted flavones B1-B4, flavanones B5-B8 and the intermediate 2′-hydroxychalcones A9, All and A12 to the chick heart invasion assay using MCF-7/6 aggregates. All compounds were evaluated at 1 μM and 100 nM; depending on the outcome higher or lower concentrations were subsequently evaluated. […] This table also includes CHI data on chalcones A1, A2 and A5.

[2] = test system: HCA2 hTERT dermal fibroblasts; assay: AFM spheroid stiffness, HCA2 hTERT dermal fibroblasts; assay type: cell-based; conditions: HCA2 hTERT normal dermal fibroblasts; 1 μM, 48 h
Procedure: (§1) Selectivity for CAFs with respect to normal fibroblasts and other cell types was assessed by performing an identical experiment with normal fibroblasts and other cell types, where compounds were considered selective for CAFs if they only modulate CAF stiffness.
(§2) U-shaped, 384-well ULA plates (cat. no. MS-9384UZ, S-bio) were seeded with a suspension of cell-specific culture media with cells. Cells were allowed to form spheroids for an appropriate time under treatment conditions before use in experiments. Cell culture dishes (cat. no. 734-2814, VWR) were filled with collagen gel and placed at 37° C. for an appropriate time to allow solidification. For each condition, spheroids were pooled in one cell culture dish. The medium was removed (stored at 37° C.) to promote attachment of the bottom of each spheroid to the collagen gel. The cell culture dishes were incubated at 37° C. After the incubation period, the stored medium was carefully (prevent detachment of spheroids) added to the dishes.
(§3) Mechanical measurements were performed using an atomic force microscope. To indent the spheroids an in-house made colloidal probe was used. Force curves were collected using an appropriate setpoint and probe speed (depending on the stiffness of the spheroids). On each spheroid multiple force curves were collected. Collected curves were then processed using the JPK DP software. Young's modulus was extracted from the force curves. All experiments were performed in biological triplicate.
(§4) To generate 3D cultures mimicking the complexity and pathophysiology of in vivo tumors, spheroids were used (cfr. point 4). Spheroids are considered to better simulate cellular heterogeneity, nutrient and oxygen gradients, cell-cell interactions, cell-matrix interactions, gene expression profiles, stromal interactions, therapeutic responses, multicellular resistance, drug penetration and anti-apoptotic signaling.

[3] = test system: MCF-7/6 breast cancer cells; assay: AFM spheroid stiffness, MCF-7/6 breast cancer cells; assay type: cell-based, human; conditions: 48 h
Procedure: as §1, §2, §3, §4

[4] = test system: primary glioblastoma (GBM) cells; assay: AFM spheroid stiffness, primary glioblastoma cells; assay type: cell-based, human; conditions: 48 h
Procedure: as §1, §2, §3, §4

[5] = test system: 13B2 hTERT, CT5.3 hTERT, HCA2 hTERT, MCF-7/6 and 4T1-Luc cells; assay: 2D CellTiter-Glo Cell Viability Assay; assay type: cell-based; conditions: 48 h of treatment
Procedure: (§5) The half maximal inhibitory concentration (IC50) of A1 was evaluated using a CellTiter-Glo® 2.0 Cell Viability Assay (cat. no. G9243, Promega) and a CellTiter-Glo® 3D Cell Viability Assay (cat. no. G9681, Promega). 13B2 hTERT cells (2D: 2×10^5, 3D: 8×10^4) were plated in each well of a Nunc™ MicroWell™ 96-Well, Nunclon Delta-Treated, Flat-Bottom Microplate (cat. no. 167008, Thermo Fisher Scientific) for 2D experiments or 96-well ULA plate (cat. no. MS-9096UZ, S-bio) in a volume of 90 μL/well. A1 was serially diluted in the appropriate medium to 10× the final concentrations. For each treatment condition, 10 μL was added to 3 replicate wells (final concentrations ranging from 1-100 μM) and plates were incubated for 48 h.
(§6) The CellTiter-Glo Cell Viability Assay was performed according to manufacturer's instructions. Briefly, the plates and the CellTiter-Glo® Reagent were equilibrated to room temperature (RT). The CellTiter-Glo® Reagent was added to each well in a 1:1 (v/v) ratio. For 2D experiments, cell lysis was induced by placing the plates on an orbital shaker for 2 min, followed by stabilization of the luminescent signal for 10 min. […] Afterwards, the luminescence was measured using a Synergy™ HTX Multi-Mode Microplate Reader (BioTek). The IC50 value was determined using the Graphpad Prism software. […]

[6] = test system: 13B2 hTERT, CT5.3 hTERT, HCA2 hTERT, MCF-7/6 and 4T1-Luc cells; assay: 3D CellTiter-Glo Cell Viability Assay (spheroids); assay type: cell-based; conditions: 3D spheroids; up to 100 μM; 48 h
Procedure: as §5, §6

Compound | minimal effective concentration [1] [µM] | spheroid stiffness [2] | spheroid stiffness ([3]; 1 μM) | spheroid stiffness ([3]; 0.03-3 μM) | spheroid stiffness ([4]; 1 μM) | spheroid stiffness ([4]; 0.03-3 μM) | IC50 value, metabolic activity of 2D cultures [5] | response of cells cultured as spheroids (viability) [6]
COc1cc(C(=O)/C=C/c2ccc(F)cc2)cc(OC)c1OC [Compound A1, 3-(4-Fluorophenyl)-1-(3,4,5-trimethoxyphenyl)prop2-en-1-one] | 0.01 | no effect | no effect | not result in a change | no effect | nor did it change | high micromolar | no response
COc1cc2oc(-c3ccc(F)cc3)cc(=O)c2c(OC)c1OC [Compound B1, 2-(4-Fluorophenyl)-5,6,7-trimethoxy-4H-chromen-4-one] | 0.01 | no effect | no effect | – | no effect | – | high micromolar | no response

Reference: patent US20260191817A1, “FIBROBLAST MODULATORS IN STROMA-RICH TUMORS” (UNIVERSITEIT GENT, priority 2022, published 2026)
